Here are results for five compounds from patent publication US9295732B2, “Conjugated TLR7 and/or TLR8 and TLR2 polycationic agonists” (CAYLA, priority 2013, dated 2016).

The target of experiment [1] is T1, human TLR7 (Homo sapiens, UniProt Q9NYK1).
T1 construct: host or cells: HEK293 (HEK-Blue™ hTLR7)
T1 sequence (Q9NYK1 27-1049): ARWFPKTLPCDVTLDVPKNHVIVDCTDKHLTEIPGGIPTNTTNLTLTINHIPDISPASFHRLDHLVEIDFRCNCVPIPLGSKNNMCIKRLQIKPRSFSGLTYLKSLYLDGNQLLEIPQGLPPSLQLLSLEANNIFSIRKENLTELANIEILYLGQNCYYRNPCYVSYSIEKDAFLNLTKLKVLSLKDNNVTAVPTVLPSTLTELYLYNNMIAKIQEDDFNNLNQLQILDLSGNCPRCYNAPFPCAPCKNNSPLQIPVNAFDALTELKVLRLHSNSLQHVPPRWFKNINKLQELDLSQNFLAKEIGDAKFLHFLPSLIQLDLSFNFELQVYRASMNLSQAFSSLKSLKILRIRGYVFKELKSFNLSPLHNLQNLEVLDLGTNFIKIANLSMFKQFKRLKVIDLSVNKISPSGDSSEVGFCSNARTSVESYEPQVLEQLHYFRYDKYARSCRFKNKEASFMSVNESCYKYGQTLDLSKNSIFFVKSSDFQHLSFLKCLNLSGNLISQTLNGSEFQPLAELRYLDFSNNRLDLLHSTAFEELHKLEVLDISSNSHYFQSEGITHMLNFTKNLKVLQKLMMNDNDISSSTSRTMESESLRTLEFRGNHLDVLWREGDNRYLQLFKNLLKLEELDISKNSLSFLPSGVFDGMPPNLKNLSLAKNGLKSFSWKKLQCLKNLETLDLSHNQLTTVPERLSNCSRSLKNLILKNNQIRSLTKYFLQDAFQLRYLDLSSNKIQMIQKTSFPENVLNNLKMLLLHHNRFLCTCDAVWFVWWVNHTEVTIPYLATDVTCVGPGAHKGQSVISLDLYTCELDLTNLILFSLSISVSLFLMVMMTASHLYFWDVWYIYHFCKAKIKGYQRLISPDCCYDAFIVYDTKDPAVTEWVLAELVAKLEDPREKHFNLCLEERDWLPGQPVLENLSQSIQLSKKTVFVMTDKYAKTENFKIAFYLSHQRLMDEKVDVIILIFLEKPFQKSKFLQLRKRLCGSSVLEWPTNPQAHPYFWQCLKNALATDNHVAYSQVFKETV
In words: HEK-Blue hTLR7 NF-κB/AP-1 SEAP reporter assay. The class given is cell-based. Conditions: HEK-Blue hTLR7 cells, 10 μg/mL to 10 pg/ml, 24 hours, OD at 655 nm, FIG. 1. The method in brief:
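HEK293 cells stably expressing the given TLR, or RAW 264.7-derived cells (50,000 or 100,000 cells/well respectively), carry an NF-κB/AP-1-inducible SEAP reporter. Conjugated TLR7-TLR2 agonists at final 10 μg/mL to 10 pg/ml, 24 h at 37° C. SEAP read colorimetrically as OD at 655 nm in detection medium.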
For orientation: A reporter such as luciferase makes a cellular process visible.

In experiment [2] the test system is ISG54 promoter activity in RAW-ISG54 reporter cells. In words: IFN response assay, RAW-ISG54 luciferase reporter cells. The class given is cell-based, mouse. Conditions: in complexes with pDNA 3:24 (w:w), overnight, FIG. 6A. As to the method:
The effect of the pDNA:TLR7-TLR2 polyamine molecules complexes on inducing an interferon response was examined. pDNA:TLR7-TLR2 polyamine molecules mixtures (pDNA:TLR7-TLR2 polyamine molecules ratio 3:24, w:w) in serum-free medium or 5% glucose were prepared as described above and added to IFN reporter cells. Luciferase reporter cell lines were used to assay interferon response. A plasmid containing an interferon-inducible luciferase reporter gene was introduced into mouse RAW 264.7 macrophages and mouse B16 melanoma cells, giving rise to the RAW-ISG54 and B16-ISG54 reporter cell lines respectively. Expression of the luciferase reporter gene by the plasmid is under the control of an interferon-inducible promoter (I-ISG54) comprising five interferon-stimulated response elements (ISRE) and the minimal promoter of the human ISG-54K (Interferon Stimulation of a Gene encoding a 54 kDa protein) gene. The ISG-54K gene is induced by interferon regulatory factor 3 (IRF3), which has a key involvement in […] responses (Grandvaux et al. 2002) and the minimal promoter of the human ISG-54K gene contains two ISRE sites and fully inducible by type I interferons (IFN-α and IFN-β) and interferon regulatory factors (IRFs) (Wathelet et al. 1988; Grandvaux et al. 2002).
The RAW-ISG54 and B16-ISG54 reporter cell lines were seeded onto 96 well microtiter plates at 100,000 cells per well and 75,000 cells per well respectively. Cells were cultured in DMEM supplemented with 10% (v/v) heat inactivated fetal bovine serum (30 min at 56° C.), 4.5 g/I glucose, 2 mM L-glutamine, 50 U/ml penicillin, 50 μg/ml streptomycin, 100 μg/ml Normocin™ (InvivoGen) together with pDNA:TLR7-TLR2 polyamine complexes at 37° C. overnight. pDNA:TLR7-TLR2 polyamine molecules complexes were prepared as described above prior to adding to the IFN reporter cells. The induced luciferase expression was assessed in the reporter cell lines using a coelenterazine-base luminescence assay reagent, the Quanti-Luc™ (InvivoGen). Secreted luciferase activity was determined by bioluminescence quantification of the cell culture media using a microplate luminometer (FLUOstar OPTIMA from BMG Labtech).

“(6S,9S,12S,15S,18S,21R)-6,25-diamino-21-(4-((6-amino-2-(butylamino)-8-hydroxy-9H-purin-9-yl)methyl)phenylcarbamoyl)-12,15,18-tris(4-aminobutyl)-9-(hydroxyl methyl)-7,10,13,16,19-pentaoxo-4-thia-8,11,14,17,20-pentaazapentacosane-1,2-diyl dipalmitate [CL413]”: the “ability to activate hTLR7” value in experiment [1] is listed as “activate hTLR7”. Also, in experiment [2], the “ability to induce an IFN response in RAW-ISG54 reporter cells” value (from here on “ability to induce an IFN response”) was “induce an IFN response in RAW-ISG54 reporter cells”. On the same counts, the results for `CCCCCCCCCCCCCCCC(=O)OCC(CSC[C@H](N)C(=O)N[C@@H](CCC(=O)NCCCNCCCCNCCCN)C(=O)Nc1ccc(Cn2c(O)nc3c(N)nc(NCCCC)nc32)cc1)OC(=O)CCCCCCCCCCCCCCC` (stereo partly drawn) [CL527, (6R,9S)-6,25-diamino-9-(4-((6-amino-2-(butylamino)-8-hydroxy-9H-purin-9-yl)methyl)phenylcarbamoyl)-7,12-dioxo-4-thia-8,13,17,22-tetraazapentacosane-1,2-diyl dipalmitate] are “activate hTLR7” and “induce an IFN response in RAW-ISG54 reporter cells”. For `CCCCCCCCCCCCCCCC(=O)N[C@@H](CSCC(COC(=O)CCCCCCCCCCCCCCC)OC(=O)CCCCCCCCCCCCCCC)C(=O)N[C@@H](CO)C(=O)N[C@@H](CCCCN)C(=O)N[C@@H](CCCCN)C(=O)N[C@@H](CCCCN)C(=O)N[C@@H](CCCCN)C(=O)Nc1ccc(Cn2c(O)nc3c(N)nc(NCCCC)nc32)cc1` (stereo partly drawn) [CL534, ((6R,9S,12S,15S,18S,21S)-25-amino-21-(4-((6-amino-2-(butylamino)-8-hydroxy-9H-purin-9-yl)methyl)phenylcarbamoyl)-12,15,18-tris(4-aminobutyl)-9-(hydroxylmethyl)-7,10,13,16,19-pentaoxo-6-palmitamido-4-thia-8,11,14,17,20-pentaazapentacosane-1,2-diyl dipalmitate], the “ability to activate hTLR7” value in experiment [1] is listed as “activate hTLR7”. In the case of `CCCCCCCCCCCCCCCC(=O)OCC(CSC[C@H](N)C(=O)N[C@@H](COC(=O)c1ccc(Cn2c(O)nc3c(N)nc(NCCCC)nc32)cc1)C(=O)NCCCNCCCCNCCCN)OC(=O)CCCCCCCCCCCCCCC` (stereo partly drawn) [CL514, (6R,9S)-6,23-diamino-9-((4-((6-amino-2-(butylamino)-8-hydroxy-9H-purin-9-yl)methyl)benzoyloxy)methyl)-7,10-dioxo-4-thia-8,11,15,20-tetraazatricosane-1,2-diyl dipalmitate], in experiment [1], the “ability to activate hTLR7” value is reported as “activate hTLR7”. Also, in experiment [2], the “ability to induce an IFN response” value was “induce an IFN response in RAW-ISG54 reporter cells”. As for `CCCCCCCCCCCCCCCC(=O)OCC(CSC[C@H](N)C(=O)NCCCNCCCCNCCCNC(=O)CNC(=O)c1ccc(Cn2c(O)nc3c(N)nc(NCCCC)nc32)cc1)OC(=O)CCCCCCCCCCCCCCC` (stereo partly drawn) [CL553, (20R)-20-amino-1-(4-((6-amino-2-(butylamino)-8-hydroxy-9H-purin-9-yl)methyl)phenyl)-1,4,19-trioxo-22-thia-2,5,9,14,18-pentaazapentacosane-24,25-diyl dipalmitate], in experiment [1], the “ability to activate hTLR7” value is on record as “activate hTLR7”. The “ability to induce an IFN response” value in experiment [2] is listed as “induce an IFN response in RAW-ISG54 reporter cells”.
